Assay results as given in patent EP0233686A2, “Bis phenyl ethanol amines and bis phenyoxypropanolamines having a beta-agonist activity” (BEECHAM GROUP PLC, priority 1986, dated 1987).
Where a name gives a salt, the structure may show the parent alone.

Tested on: Female CFLP mice
Test: Hypoglycaemic activity: oral compound, then subcutaneous glucose load in fasted mice; area under the blood glucose curve over 2 hours compared with water controls
Type: in vivo
Details: Mus musculus, mice fasted for 24 hours, glucose 1g/kg s.c. 30 minutes after dosing, 2 hour AUC vs water controls, read-out: % reduction in area under blood glucose curve; for inhibition in vivo at 3 µmol/kg: dose 3 µmol/Kg p.o.
Protocol: Female CFLP mice, weighing approximately 25g, were fasted for 24 hours prior to the study. The compounds under study were administered orally as an aqueous solution to each of 6 mice. 30 minutes later a blood sample (20ul) was obtained from the tail for the analysis of blood glucose. Immediately after taking this blood sample, glucose (lg/kg body weight) was administered subcutaneously to each mouse. 6 mice were -given water as a control. Blood samples were then obtained from each mouse at 30 minute intervals for 120 minutes. Compounds that produced a significant (p>0.05) reduction of blood glucose, compared with control mice given water, at any time interval were considered active. The area under the blood glucose curve over the 2 hour period after the administration of the glucose was calculated for each compound and compared with the value for control animals.

With `C[C@H](Cc1ccc(OCC(=O)NCCNC(=O)COc2ccc(C[C@@H](C)NC[C@H](O)c3cccc(Cl)c3)cc2)cc1)NC[C@H](O)c1cccc(Cl)c1` [Example 1, [R,R,R,R]-N,N'-(1,2-Ethanediyl)bis[2-[4-[2-[(2-(3-chlorophenyl)-2-hydroxyethyl)amino]propyl]phenoxy]acetamide]] the inhibition in vivo at 12.5 µmol/kg (dose 12.5 µmol/Kg p.o.) was 43%.
`C[C@H](Cc1ccc(OCCCCCCOc2ccc(C[C@@H](C)NC[C@H](O)c3cccc(Cl)c3)cc2)cc1)NC[C@H](O)c1cccc(Cl)c1` [Example 3, [R,R,R,R]-α,α'[1,6-Hexanediylbis[oxy-4,1-phenylene(1-methyl-2,1-ethanediyl)iminomethylene]]bis[3-chlorobenzenemethanol], dihydrochloride] showed an inhibition in vivo at 1 µmol/kg (dose 1.0 µmol/Kg p.o.) of 55%.
In the case of `C[C@H](Cc1ccc(S(=O)(=O)c2ccc(C[C@@H](C)NC[C@H](O)c3cccc(Cl)c3)cc2)cc1)NC[C@H](O)c1cccc(Cl)c1` [Example 6, [R,R,R,R]-α,α'-[Sulphonylbis[4,1-phenylene(1-methyl-2,1-ethanediyl)iminomethylene]]bis|3-chlorobenzenemethanol] dihydrochloride], the inhibition in vivo at 3 µmol/kg is reported as 30%.
`C[C@H](Cc1ccc(C(O)(CO)c2ccc(C[C@@H](C)NC[C@H](O)c3cccc(Cl)c3)cc2)cc1)NC[C@H](O)c1cccc(Cl)c1` [Example 7, [R,R,R,R]-1,1-di[4-[2-[[2-(3-chlorophenyl)-2-hydroxyethyl]amino]propyl]phenyl]-1,2-ethanediol, dihydrochloride] was tested, and the inhibition in vivo at 2.5 µmol/kg (dose 2.5 µmol/Kg p.o.) was 17%.
With `C[C@H](Cc1ccc(OCCCCCCCCCOc2ccc(C[C@@H](C)NC[C@H](O)c3cccc(Cl)c3)cc2)cc1)NC[C@H](O)c1cccc(Cl)c1` [Example 13, [R,R,R,R,]-α,α'[1,9-Nonanediylbis[oxy-4,1-phenylene (1-methyl-2,1-ethanediyl)iminomethylene]]bis[3-chlorobenzenemethanol], dihydrochloride] the inhibition in vivo at 3 µmol/kg was 34%.
`C[C@H](Cc1ccc(CNCCCCNCc2ccc(C[C@@H](C)NC[C@H](O)c3cccc(Cl)c3)cc2)cc1)NC[C@H](O)c1cccc(Cl)c1` [Example 16, [R,R,R,R]-α,α'-[1,4-Butanediylbis[iminomethylene-4,1-phenylene(1-methyl-2,1-ethanediyl)iminomethylene]]bis [3-chlorobenzenemethanol, tetrahydrochloride] gave an inhibition in vivo at 3 µmol/kg of 8%.
For `C[C@H](Cc1ccc(CCCCCCc2ccc(C[C@@H](C)NC[C@H](O)c3cccc(Cl)c3)cc2)cc1)NC[C@H](O)c1cccc(Cl)c1` [Example 19, [R,R,R,R]-α,α'-[1,6-Hexanediylbis[4,1-phenylene (1-methyl-2,1-ethanediyl)iminomethylene]] bis[3-chlorobenzenemethanol], dihydrochloride], the inhibition in vivo at 10 µmol/kg (dose 10 µmol/Kg p.o.) was 11%.
Work on `C[C@H](Cc1ccc(OCCCCCOc2ccc(C[C@@H](C)NC[C@H](O)c3cccc(Cl)c3)cc2)cc1)NC[C@H](O)c1cccc(Cl)c1` [Example 20, [R,R,R,R]-α,α'-[1,5-Pentanediylbis[oxy-4,1-phenylene (1-methyl-2,1-ethanediyl)iminomethylene]] bis[3-chlorobenzenemethanol], dihydrochloride] yielded an inhibition in vivo at 0.1 µmol/kg (dose 0.1 µmol/Kg p.o.) of 51%.
